From ChEMBL document CHEMBL3885861, “Open TG-GATES”

Species: Rattus norvegicus
Test: Open TG-GATES - Regimen: Daily Repeat
Format: toxicity, organism-based, Sprague-Dawley
Parameters: regimen Daily Repeat, gender Male, age 6 weeks
Conditions: in vivo, po, 100 mg/kg, route gavage, dose level Low; for APTT / Bas / Eos / Fbg / Hb / Ht / Lym / MCH / MCHC / MCV / Mono / Neu / PT / Plat / RBC / Ret / WBC: tissue Blood; for KIDNEY_L / KIDNEY_R / KIDNEY_TOTAL: tissue Kidney; for LIVER: tissue Liver; for A/G / ALP / ALT / AST / BUN / CRE / Ca / Cl / DBIL / GLC / IP / K / LDH / Na / PL / RALB / TBIL / TC / TG / TP / gamma-GTP: tissue Plasma

## O=C(N[C@H](CO)[C@H](O)c1ccc([N+](=O)[O-])cc1)C(Cl)Cl [CHLORAMPHENICOL]
72 h, time 3 day
  TERMINAL_BW: 251 g
  APTT: 16.1 s
  Bas: 0%
  Eos: 1%
  Fbg: 273.2 mg/dL
  Hb: 13.3 g/dL
  Ht: 40.4%
  Lym: 79.4%
  MCH: 21.8 pg
  MCHC: 32.8%
  MCV: 66.6 fL
  Mono: 3.2%
  Neu: 16.2%
  PT: 14.7 s
  Plat: 116.8 x10_4/uL
  RBC: 607.2 x10_4/ul
  Ret: 5.4%
  WBC: 102.1 x10_2/uL
  KIDNEY_L: 1.1 g
  KIDNEY_R: 1 g
  KIDNEY_TOTAL: 2.1 g
  LIVER: 11.3 g
  A/G: 0.9
  ALP: 1563.4 IU/L
  ALT: 45 IU/L
  AST: 69.4 IU/L
  BUN: 15.6 mg/dL
  CRE: 0.2 mg/dL
  Ca: 11.1 mg/dL
  Cl: 104.6 meq/L
  DBIL: 0.02 mg/dL
  GLC: 178.4 mg/dL
  IP: 6.8 mg/dL
  K: 4.3 meq/L
  LDH: 95.6 IU/L
  Na: 141.2 meq/L
  PL: 146.8 mg/dL
  RALB: 2.5 g/dL
  TBIL: 0.054 mg/dL
  TC: 80 mg/dL
  TG: 97.6 mg/dL
  TP: 5.4 g/dL
  gamma-GTP: 0.8 IU/L
[…], time 7 day
  TERMINAL_BW: 287.8 g
  APTT: 16.2 s
  Bas: 0%
  Eos: 0.8%
  Fbg: 308.8 mg/dL
  Hb: 14.2 g/dL
  Ht: 44.4%
  Lym: 78.2%
  MCH: 21.1 pg
  MCHC: 32.2%
  MCV: 65.7 fL
  Mono: 3%
  Neu: 17.4%
  PT: 14.4 s
  Plat: 131.5 x10_4/uL
  RBC: 675 x10_4/ul
  Ret: 6%
  WBC: 90.7 x10_2/uL
  KIDNEY_L: 1.2 g
  KIDNEY_R: 1.2 g
  KIDNEY_TOTAL: 2.4 g
  LIVER: 12.9 g
  A/G: 0.8
  ALP: 1500.2 IU/L
  ALT: 49 IU/L
  AST: 71.2 IU/L
  BUN: 13.6 mg/dL
  CRE: 0.2 mg/dL
  Ca: 11.7 mg/dL
  Cl: 106.2 meq/L
  DBIL: 0.026 mg/dL
  GLC: 189.6 mg/dL
  IP: 8.3 mg/dL
  K: 4.2 meq/L
  LDH: 65.8 IU/L
  Na: 144.2 meq/L
  PL: 156.2 mg/dL
  RALB: 2.7 g/dL
  TBIL: 0.062 mg/dL
  TC: 82.6 mg/dL
  TG: 72.4 mg/dL
  TP: 5.9 g/dL
  gamma-GTP: 1.2 IU/L
[…], time 14 day
  TERMINAL_BW: 333.6 g
  APTT: 14.7 s
  Bas: 0%
  Eos: 1.4%
  Fbg: 297.8 mg/dL
  Hb: 14.1 g/dL
  Ht: 43.4%
  Lym: 78%
  MCH: 20.2 pg
  MCHC: 32.5%
  MCV: 62.1 fL
  Mono: 2.4%
  Neu: 18%
  PT: 14.5 s
  Plat: 121.6 x10_4/uL
  RBC: 698.2 x10_4/ul
  Ret: 3.8%
  WBC: 96.2 x10_2/uL
  KIDNEY_L: 1.3 g
  KIDNEY_R: 1.3 g
  KIDNEY_TOTAL: 2.6 g
  LIVER: 14.9 g
  A/G: 0.8
  ALP: 1535.2 IU/L
  ALT: 41.8 IU/L
  AST: 67.4 IU/L
  BUN: 16 mg/dL
  CRE: 0.2 mg/dL
  Ca: 11.2 mg/dL
  Cl: 105 meq/L
  DBIL: 0.022 mg/dL
  GLC: 191 mg/dL
  IP: 6.5 mg/dL
  K: 3.8 meq/L
  LDH: 54.8 IU/L
  Na: 142.8 meq/L
  PL: 157.4 mg/dL
  RALB: 2.6 g/dL
  TBIL: 0.05 mg/dL
  TC: 77.8 mg/dL
  TG: 133 mg/dL
  TP: 5.8 g/dL
  gamma-GTP: 1 IU/L
[…], time 28 day
  TERMINAL_BW: 409.6 g
  APTT: 16.5 s
  Bas: 0%
  Eos: 1%
  Fbg: 278 mg/dL
  Hb: 14.9 g/dL
  Ht: 43.7%
  Lym: 81%
  MCH: 19.5 pg
  MCHC: 34.2%
  MCV: 57 fL
  Mono: 1.2%
  Neu: 15.8%
  PT: 14.8 s
  Plat: 106 x10_4/uL
  RBC: 767.4 x10_4/ul
  Ret: 2.3%
  WBC: 79.5 x10_2/uL
  KIDNEY_L: 1.6 g
  KIDNEY_R: 1.5 g
  KIDNEY_TOTAL: 3.1 g
  LIVER: 16.8 g
  A/G: 0.8
  ALP: 1164.4 IU/L
  ALT: 39.2 IU/L
  AST: 61.4 IU/L
  BUN: 16.4 mg/dL
  CRE: 0.2 mg/dL
  Ca: 10.9 mg/dL
  Cl: 104.4 meq/L
  DBIL: 0.02 mg/dL
  GLC: 171.2 mg/dL
  IP: 6.1 mg/dL
  K: 3.5 meq/L
  LDH: 44.6 IU/L
  Na: 144.2 meq/L
  PL: 152.2 mg/dL
  RALB: 2.7 g/dL
  TBIL: 0.058 mg/dL
  TC: 75.2 mg/dL
  TG: 97.6 mg/dL
  TP: 6.2 g/dL
  gamma-GTP: 1 IU/L
